# Assay results taken from US7932270B2 (Cytokinetics, Inc., priority 2006, dated 2011).
# Biological target: T1, chicken gizzard smooth muscle myosin subfragment-1 chemically crosslinked to cardiac or skeletal actin (Gallus gallus, UniProt P10587)
# T1 construct: chicken gizzard smooth muscle myosin subfragment-1; from tissue; host or cells: chicken gizzard
# Experiment: Smooth muscle myosin ATPase dose response assay (pyruvate kinase/horseradish peroxidase/pyruvate oxidase-coupled, amplex red fluorescence)
# Assay type: biochemical
# Details: read-out: IC50 Arithmetic Mean
# Procedure, shortened: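 Amplex red fluorescence (480 nm excitation, 615 nm emission) tracked ATP hydrolysis by smooth muscle S1 crosslinked to actin with carbodiimide/N-hydroxysuccinimide. Reactions contained 0.15 mM ATP and 100 mM KCl at pH 7.00, 22° C. IC50 came from a four-parameter logistic fit.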
# T1 sequence (P02607 2-151): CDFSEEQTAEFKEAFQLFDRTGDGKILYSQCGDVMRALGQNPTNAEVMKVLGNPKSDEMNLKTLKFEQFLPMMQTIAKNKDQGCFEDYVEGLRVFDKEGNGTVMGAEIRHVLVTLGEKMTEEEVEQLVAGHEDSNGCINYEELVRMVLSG
# T1 sequence (P10587 84-789): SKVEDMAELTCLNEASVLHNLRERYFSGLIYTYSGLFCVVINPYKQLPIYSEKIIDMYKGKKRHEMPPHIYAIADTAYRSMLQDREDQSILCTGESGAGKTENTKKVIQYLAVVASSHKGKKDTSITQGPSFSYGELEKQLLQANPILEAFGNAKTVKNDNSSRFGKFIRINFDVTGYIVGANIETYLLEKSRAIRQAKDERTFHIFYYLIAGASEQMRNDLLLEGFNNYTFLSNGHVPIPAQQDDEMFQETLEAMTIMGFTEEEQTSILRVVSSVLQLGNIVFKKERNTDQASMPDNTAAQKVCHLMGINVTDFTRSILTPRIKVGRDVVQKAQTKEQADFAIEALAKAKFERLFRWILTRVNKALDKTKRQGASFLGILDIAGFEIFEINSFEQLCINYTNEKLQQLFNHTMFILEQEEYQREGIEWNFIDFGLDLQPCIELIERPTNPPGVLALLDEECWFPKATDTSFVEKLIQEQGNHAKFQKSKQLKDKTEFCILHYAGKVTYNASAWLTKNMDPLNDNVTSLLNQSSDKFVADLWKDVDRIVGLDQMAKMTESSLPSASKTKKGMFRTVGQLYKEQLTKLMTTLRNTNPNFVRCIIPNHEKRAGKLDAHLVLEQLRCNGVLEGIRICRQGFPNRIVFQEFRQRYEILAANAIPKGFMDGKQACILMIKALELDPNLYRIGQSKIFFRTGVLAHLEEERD
row,SMILES,IC50
1,O=C(NCc1cccnc1)c1ccc(-c2csc(CO)c2)nc1NCCc1cccc(F)c1 [(2-{[2-(3-fluorophenyl)ethyl]amino}-6-[5-(hydroxymethyl)(3-thienyl)](3-pyridyl))-N-(3-pyridylmethyl)carboxamide],73 nM
2,O=C(NCc1cccnc1)c1ccc(-c2cnoc2)nc1NCCc1cccc(F)c1 [(2-{[2-(3-fluorophenyl)ethyl]amino}-6-isoxazol-4-yl(3-pyridyl))-N-(3-pyridylmethyl)carboxamide],49800 nM
3,O=C(NCc1cccnc1)c1ccc(-c2ccccc2)nc1NCCc1cccc(F)c1 [(2-{[2-(3-fluorophenyl)ethyl]amino}-6-phenyl(3-pyridyl))-N-(3-pyridylmethyl)carboxamide],63 nM
4,O=C(NCc1cccnc1)c1cc(C(=O)NCc2cccnc2)c(-c2ccccc2)nc1NCCc1cccc(F)c1 [(2-{[2-(3-fluorophenyl)ethyl]amino}-6-phenyl-5-[N-(3-pyridylmethyl)carbamoyl](3-pyridyl))-N-(3-pyridylmethyl)carboxamide],56000 nM
5,O=C(NCc1cccnc1)c1ccc(-c2cc[nH]n2)nc1NCCc1cccc(F)c1 [(2-{[2-(3-fluorophenyl)ethyl]amino}-6-pyrazol-3-yl(3-pyridyl))-N-(3-pyridylmethyl)carboxamide],124 nM
6,O=C(NCc1cc[nH]n1)c1ccc(-c2cc[nH]n2)nc1NCCc1cccc(F)c1 [(2-{[2-(3-fluorophenyl)ethyl]amino}-6-pyrazol-3-yl(3-pyridyl))-N-(pyrazol-3-ylmethyl)carboxamide],92 nM
7,O=C(NCc1cccnc1)c1ccc(-c2cn[nH]c2)nc1NCCc1cccc(F)c1 [(2-{[2-(3-fluorophenyl)ethyl]amino}-6-pyrazol-4-yl(3-pyridyl))-N-(3-pyridylmethyl)carboxamide],44 nM
8,O=C(NCc1cc[nH]n1)c1ccc(-c2cn[nH]c2)nc1NCCc1cccc(F)c1 [(2-{[2-(3-fluorophenyl)ethyl]amino}-6-pyrazol-4-yl(3-pyridyl))-N-(pyrazol-3-ylmethyl)carboxamide],34 nM
9,O=C(NCc1cccnc1NCCO)c1ccc(-c2cn[nH]c2)nc1NCCc1cccc(F)c1 [(2-{[2-(3-fluorophenyl)ethyl]amino}-6-pyrazol-4-yl(3-pyridyl))-N-({2-[(2-hydroxyethyl)amino](3-pyridyl)}methyl)carboxamide],65 nM
10,O=C(NCc1cccc(NCCO)n1)c1ccc(-c2cn[nH]c2)nc1NCCc1cccc(F)c1 [(2-{[2-(3-fluorophenyl)ethyl]amino}-6-pyrazol-4-yl(3-pyridyl))-N-({6-[(2-hydroxyethyl)amino](2-pyridyl)}methyl)carboxamide],39 nM
11,O=C(NCC1CCNC1=O)c1ccc(-c2cn[nH]c2)nc1NCCc1cccc(F)c1 (stereo not shown) [(2-{[2-(3-fluorophenyl)ethyl]amino}-6-pyrazol-4-yl(3-pyridyl))-N-[(2-oxopyrrolidin-3-yl)methyl]carboxamide],180 nM
12,O=C1CNCC(CNC(=O)c2ccc(-c3cn[nH]c3)nc2NCCc2cccc(F)c2)N1 (stereo not shown) [(2-{[2-(3-fluorophenyl)ethyl]amino}-6-pyrazol-4-yl(3-pyridyl))-N-[(6-oxopiperazin-2-yl)methyl]carboxamide],973 nM
13,O=C1CCCCC(CNC(=O)c2ccc(-c3cn[nH]c3)nc2NCCc2cccc(F)c2)N1 (stereo not shown) [(2-{[2-(3-fluorophenyl)ethyl]amino}-6-pyrazol-4-yl(3-pyridyl))-N-[(7-oxoazaperhydroepin-2-yl)methyl]carboxamide],687 nM
14,O=C1CNCC(CNC(=O)c2ccc(-c3ccn[nH]3)nc2NCCc2cccc(F)c2)N1 (stereo not shown) [(2-{[2-(3-fluorophenyl)ethyl]amino}-6-pyrazol-5-yl(3-pyridyl))-N-[(6-oxopiperazin-2-yl)methyl]carboxamide],6950 nM
15,COc1cccc(CCNc2nc(-c3ccccc3)ccc2C(=O)NCc2cccnc2)c1 [(2-{[2-(3-methoxyphenyl)ethyl]amino}-6-phenyl(3-pyridyl))-N-(3-pyridylmethyl)carboxamide],269 nM
16,Cc1cccc(CCNc2nc(-c3ccccc3)ccc2C(=O)NCc2cccnc2)c1 [(2-{[2-(3-methylphenyl)ethyl]amino}-6-phenyl(3-pyridyl))-N-(3-pyridylmethyl)carboxamide],450 nM
17,C=CCNC(=O)c1ccc(-c2ccccc2)nc1NCCc1cccc(C)c1 [(2-{[2-(3-methylphenyl)ethyl]amino}-6-phenyl(3-pyridyl))-N-prop-2-enylcarboxamide],3740 nM
18,Nc1ccc(CCNc2nc(-c3ccccc3)ccc2C(=O)NCc2cccnc2)cc1 [(2-{[2-(4-aminophenyl)ethyl]amino}-6-phenyl(3-pyridyl))-N-(3-pyridylmethyl)carboxamide],27100 nM
19,O=C(NCc1cccnc1)c1ccc(-c2ccccc2)nc1NCCc1ccc(Cl)cc1 [(2-{[2-(4-chlorophenyl)ethyl]amino}-6-phenyl(3-pyridyl))-N-(3-pyridylmethyl)carboxamide],6680 nM

row,SMILES,IC50
1,O=C(NCc1cccnc1)c1ccc(-c2ccccc2)nc1NCCc1ccc(F)cc1 [(2-{[2-(4-fluorophenyl)ethyl]amino}-6-phenyl(3-pyridyl))-N-(3-pyridylmethyl)carboxamide],1610 nM
2,O=C(NCc1cccnc1)c1ccc(-c2ccccc2)nc1NCCc1ccc(O)cc1 [(2-{[2-(4-hydroxyphenyl)ethyl]amino}-6-phenyl(3-pyridyl))-N-(3-pyridylmethyl)carboxamide],36700 nM
3,O=C(NCc1cccnc1)c1ccc(-c2ccccc2)nc1NCC1(O)CCCCC1 [(2-{[(hydroxycyclohexyl)methyl]amino}-6-phenyl(3-pyridyl))-N-(3-pyridylmethyl)carboxamide],7810 nM
4,CNC(=O)/C=C/c1ccc(-c2ccccc2)nc1NCCc1cccc(F)c1 [(2E)-3-(2-{[2-(3-fluorophenyl)ethyl]amino}-6-phenyl(3-pyridyl))-N-methylprop-2-enamide],57400 nM
5,CNC(=O)[C@@H](CO)NC(=O)c1ccc(-c2ccccc2C#N)nc1NCCc1cccc(F)c1 [(2R)-2-[(6-(2-cyanophenyl)-2-{[2-(3-fluorophenyl)ethyl]amino}(3-pyridyl))carbonylamino]-3-hydroxy-N-methylpropanamide],544 nM
6,CNC(=O)[C@@H](C)NC(=O)c1ccc(-c2ccccc2C#N)nc1NCCc1cccc(F)c1 [(2R)-2-[(6-(2-cyanophenyl)-2-{[2-(3-fluorophenyl)ethyl]amino}(3-pyridyl))carbonylamino]-N-methylpropanamide],1270 nM
7,CNC(=O)[C@H](N)CCNC(=O)c1ccc(-c2ccccc2C#N)nc1NCCc1cccc(F)c1 [(2R)-2-amino-4-[(6-(2-cyanophenyl)-2-{[2-(3-fluorophenyl)ethyl]amino}(3-pyridyl))carbonylamino]-N-methylbutanamide],12900 nM
8,CNC(=O)[C@H](C)CNC(=O)c1cc(F)c(-c2cnn(C)c2)nc1NCCc1cccc(F)c1 [(2R)-3-[(5-fluoro-2-{[2-(3-fluorophenyl)ethyl]amino}-6-(1-methylpyrazol-4-yl)(3-pyridyl))carbonylamino]-2-methyl-N-methylpropanamide],130 nM
9,C[C@H](CNC(=O)c1cc(F)c(-c2cnn(C)c2)nc1NCCc1cccc(F)c1)C(=O)O [(2R)-3-[(5-fluoro-2-{[2-(3-fluorophenyl)ethyl]amino}-6-(1-methylpyrazol-4-yl)(3-pyridyl))carbonylamino]-2-methylpropanoic acid],3840 nM
10,CNC(=O)[C@@H](CN)NC(=O)c1ccc(-c2ccccc2C#N)nc1NCCc1cccc(F)c1 [(2R)-3-amino-2-[(6-(2-cyanophenyl)-2-{[2-(3-fluorophenyl)ethyl]amino}(3-pyridyl))carbonylamino]-N-methylpropanamide],274 nM
11,N#Cc1ccccc1-c1ccc(C(=O)NC[C@@H](COC(=O)CN)NC(=O)CN)c(NCCc2cccc(F)c2)n1 [(2S)-2-(2-aminoacetylamino)-3-[(6-(2-cyanophenyl)-2-{[2-(3-fluorophenyl)ethyl]amino}(3-pyridyl))carbonylamino]propyl 2-aminoacetate],5700 nM
12,CNC(=O)[C@H](CNC(=O)c1ccc(-c2ccccc2C#N)nc1NCCc1cccc(F)c1)NC(C)=O [(2S)-2-(acetylamino)-3-[(6-(2-cyanophenyl)-2-{[2-(3-fluorophenyl)ethyl]amino}(3-pyridyl))carbonylamino]-N-methylpropanamide],5550 nM
13,CNC(=O)[C@H](CO)NC(=O)c1ccc(-c2ccccc2C#N)nc1NCCc1cccc(F)c1 [(2S)-2-[(6-(2-cyanophenyl)-2-{[2-(3-fluorophenyl)ethyl]amino}(3-pyridyl))carbonylamino]-3-hydroxy-N-methylpropanamide],1120 nM
14,CNC(=O)[C@H](C)NC(=O)c1ccc(-c2ccccc2C#N)nc1NCCc1cccc(F)c1 [(2S)-2-[(6-(2-cyanophenyl)-2-{[2-(3-fluorophenyl)ethyl]amino}(3-pyridyl))carbonylamino]-N-methylpropanamide],985 nM
15,"CN(C)C(=O)[C@@H](N)CNC(=O)c1ccc(-c2ccccc2C#N)nc1NCCc1cccc(F)c1 [(2S)-2-amino-3-[(6-(2-cyanophenyl)-2-{[2-(3-fluorophenyl)ethyl]amino}(3-pyridyl))carbonylamino]-N,N-dimethylpropanamide]",8180 nM
16,CNC(=O)[C@@H](N)CNC(=O)c1ccc(-c2ccccc2C#N)nc1NCCc1cccc(F)c1 [(2S)-2-amino-3-[(6-(2-cyanophenyl)-2-{[2-(3-fluorophenyl)ethyl]amino}(3-pyridyl))carbonylamino]-N-methylpropanamide],2320 nM
17,N#Cc1ccccc1-c1ccc(C(=O)NC[C@H](N)C(=O)O)c(NCCc2cccc(F)c2)n1 [(2S)-2-amino-3-[(6-(2-cyanophenyl)-2-{[2-(3-fluorophenyl)ethyl]amino}(3-pyridyl))carbonylamino]propanoic acid],9760 nM
18,CNC(=O)[C@@H](N)CCNC(=O)c1ccc(-c2ccccc2C#N)nc1NCCc1cccc(F)c1 [(2S)-2-amino-4-[(6-(2-cyanophenyl)-2-{[2-(3-fluorophenyl)ethyl]amino}(3-pyridyl))carbonylamino]-N-methylbutanamide],5020 nM
